Source: US20210276987A1, “PHARMACEUTICAL AGENTS FOR USE IN SMOKING AND TOBACCO CESSATION” (Washington State University, priority 2018, published 2021)

Tests used:
[1] = molecular target: T1, UGT2B10 (Homo sapiens, UniProt P36537); assay: biochemical
T1 sequence (P36537 24-528): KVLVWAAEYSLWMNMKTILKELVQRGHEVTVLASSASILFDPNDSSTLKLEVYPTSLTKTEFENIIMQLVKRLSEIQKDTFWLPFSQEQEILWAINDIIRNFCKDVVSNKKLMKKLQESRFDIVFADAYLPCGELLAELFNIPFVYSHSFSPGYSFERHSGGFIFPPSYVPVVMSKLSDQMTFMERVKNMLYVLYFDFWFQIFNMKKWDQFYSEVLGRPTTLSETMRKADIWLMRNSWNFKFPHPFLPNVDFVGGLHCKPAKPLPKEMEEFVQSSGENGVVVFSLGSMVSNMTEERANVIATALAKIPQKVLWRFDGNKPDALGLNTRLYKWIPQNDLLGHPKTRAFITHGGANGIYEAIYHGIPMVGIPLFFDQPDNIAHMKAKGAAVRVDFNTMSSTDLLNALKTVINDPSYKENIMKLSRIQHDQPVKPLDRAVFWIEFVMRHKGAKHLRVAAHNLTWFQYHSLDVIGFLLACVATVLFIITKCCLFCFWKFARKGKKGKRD
Experimental: Initial screening assays were performed as described above for the CYP assays using 1 μM or 10 μM of each of the NAs. The inhibitory effects of each agent against UGT2B10 was performed using the known UGT2B10-specific probe substrate, nicotine, in pooled human liver microsomes. […] Pre-incubations containing 500 μM nicotine and 1 or 10 μM NA were subsequently performed at 37° C. in 50 mM Tris-HCl buffer (pH 7.5, in a final volume of 50 μL) and 10 mM MgCl2 for 5 minutes.

[2] = system: UGTs 1A1, 1A4, 1A6, 1A9, 2B4, 2B7, 2B10, 2B15 and 2B17; assay: Selectivity over other major hepatic UGT enzymes (panel statement); assay type: biochemical, human
[3] = molecular target: T2, CYP2C8 (Homo sapiens, UniProt P10632); details: Table 6
T2 sequence (P10632 1-490): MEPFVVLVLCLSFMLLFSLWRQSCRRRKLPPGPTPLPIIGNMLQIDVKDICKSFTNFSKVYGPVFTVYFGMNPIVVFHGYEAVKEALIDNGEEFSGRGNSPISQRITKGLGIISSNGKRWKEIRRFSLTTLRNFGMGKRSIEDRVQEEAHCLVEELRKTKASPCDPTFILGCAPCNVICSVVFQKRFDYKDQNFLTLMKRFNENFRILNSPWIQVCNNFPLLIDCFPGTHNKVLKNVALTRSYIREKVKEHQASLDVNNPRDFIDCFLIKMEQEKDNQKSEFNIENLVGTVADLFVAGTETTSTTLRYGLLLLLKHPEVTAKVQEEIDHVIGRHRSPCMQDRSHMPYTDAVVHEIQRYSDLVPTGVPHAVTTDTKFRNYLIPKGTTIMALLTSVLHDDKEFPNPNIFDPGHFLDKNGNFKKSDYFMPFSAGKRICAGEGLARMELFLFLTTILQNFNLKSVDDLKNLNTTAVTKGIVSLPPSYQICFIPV

[4] = molecular target: CYP2E1 (Homo sapiens, UniProt P05181); details: Table 6
Sequence of CYP2E1 (P05181 whole entry): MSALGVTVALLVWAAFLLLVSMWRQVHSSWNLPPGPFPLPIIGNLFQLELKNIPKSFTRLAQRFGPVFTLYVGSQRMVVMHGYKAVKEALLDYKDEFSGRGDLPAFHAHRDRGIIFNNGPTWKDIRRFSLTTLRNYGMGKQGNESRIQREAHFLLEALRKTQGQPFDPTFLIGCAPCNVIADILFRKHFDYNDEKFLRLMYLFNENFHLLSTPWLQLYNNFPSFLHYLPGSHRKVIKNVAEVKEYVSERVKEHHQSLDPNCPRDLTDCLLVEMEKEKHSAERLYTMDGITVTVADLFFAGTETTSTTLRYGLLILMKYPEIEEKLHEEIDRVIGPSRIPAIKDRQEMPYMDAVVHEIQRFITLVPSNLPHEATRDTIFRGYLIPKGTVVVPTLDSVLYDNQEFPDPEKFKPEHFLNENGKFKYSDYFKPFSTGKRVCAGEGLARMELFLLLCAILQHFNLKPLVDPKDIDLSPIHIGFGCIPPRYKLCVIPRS

[5] = molecular target: UGT1A1 (Homo sapiens, UniProt P22309); details: Table 10
Sequence of UGT1A1 (P22309 26-533): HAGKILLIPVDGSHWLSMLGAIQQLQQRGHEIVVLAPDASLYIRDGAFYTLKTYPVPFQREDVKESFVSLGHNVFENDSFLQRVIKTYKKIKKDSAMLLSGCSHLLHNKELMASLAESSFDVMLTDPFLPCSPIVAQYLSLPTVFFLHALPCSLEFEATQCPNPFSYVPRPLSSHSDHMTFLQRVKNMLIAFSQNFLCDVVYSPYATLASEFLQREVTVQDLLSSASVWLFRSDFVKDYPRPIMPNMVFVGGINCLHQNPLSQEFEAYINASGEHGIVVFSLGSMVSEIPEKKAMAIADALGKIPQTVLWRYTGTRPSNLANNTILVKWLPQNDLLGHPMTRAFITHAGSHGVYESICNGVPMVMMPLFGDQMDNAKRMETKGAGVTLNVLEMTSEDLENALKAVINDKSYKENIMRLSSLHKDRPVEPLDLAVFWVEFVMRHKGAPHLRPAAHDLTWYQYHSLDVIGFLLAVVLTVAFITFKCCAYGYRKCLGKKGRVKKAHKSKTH

[6] = molecular target: UGT1A4 (Homo sapiens, UniProt P22310); details: Table 10
Sequence of UGT1A4 (P22310 29-534): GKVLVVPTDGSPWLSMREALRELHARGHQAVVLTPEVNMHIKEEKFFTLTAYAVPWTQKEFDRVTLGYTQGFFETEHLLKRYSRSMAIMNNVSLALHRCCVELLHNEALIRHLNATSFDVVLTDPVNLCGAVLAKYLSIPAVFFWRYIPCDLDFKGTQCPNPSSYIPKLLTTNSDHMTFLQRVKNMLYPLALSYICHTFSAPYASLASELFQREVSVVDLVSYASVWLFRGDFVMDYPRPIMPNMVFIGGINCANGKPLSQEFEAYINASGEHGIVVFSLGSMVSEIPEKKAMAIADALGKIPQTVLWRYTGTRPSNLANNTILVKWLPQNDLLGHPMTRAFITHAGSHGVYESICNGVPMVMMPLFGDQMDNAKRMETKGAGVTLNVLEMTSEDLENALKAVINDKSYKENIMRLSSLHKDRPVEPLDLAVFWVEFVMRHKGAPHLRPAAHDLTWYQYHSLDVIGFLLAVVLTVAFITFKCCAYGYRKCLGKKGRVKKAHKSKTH

[7] = molecular target: UGT1A6 (Homo sapiens, UniProt P19224); details: Table 10
Sequence of UGT1A6 (P19224 27-532): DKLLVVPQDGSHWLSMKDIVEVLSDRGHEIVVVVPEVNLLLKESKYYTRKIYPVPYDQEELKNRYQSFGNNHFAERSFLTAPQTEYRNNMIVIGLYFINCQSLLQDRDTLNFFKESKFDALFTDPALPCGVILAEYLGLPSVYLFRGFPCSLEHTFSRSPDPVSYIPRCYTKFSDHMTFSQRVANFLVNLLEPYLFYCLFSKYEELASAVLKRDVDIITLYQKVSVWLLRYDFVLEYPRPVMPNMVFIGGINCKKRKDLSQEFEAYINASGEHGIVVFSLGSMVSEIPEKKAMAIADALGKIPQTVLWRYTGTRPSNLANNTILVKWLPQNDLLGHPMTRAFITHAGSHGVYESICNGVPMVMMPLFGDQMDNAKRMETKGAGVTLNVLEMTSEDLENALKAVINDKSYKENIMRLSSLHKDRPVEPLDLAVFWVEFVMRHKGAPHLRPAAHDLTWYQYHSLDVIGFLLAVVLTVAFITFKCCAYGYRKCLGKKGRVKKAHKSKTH

[8] = molecular target: UGT1A9 (Homo sapiens, UniProt O60656); details: Table 10
Sequence of UGT1A9 (O60656 26-530): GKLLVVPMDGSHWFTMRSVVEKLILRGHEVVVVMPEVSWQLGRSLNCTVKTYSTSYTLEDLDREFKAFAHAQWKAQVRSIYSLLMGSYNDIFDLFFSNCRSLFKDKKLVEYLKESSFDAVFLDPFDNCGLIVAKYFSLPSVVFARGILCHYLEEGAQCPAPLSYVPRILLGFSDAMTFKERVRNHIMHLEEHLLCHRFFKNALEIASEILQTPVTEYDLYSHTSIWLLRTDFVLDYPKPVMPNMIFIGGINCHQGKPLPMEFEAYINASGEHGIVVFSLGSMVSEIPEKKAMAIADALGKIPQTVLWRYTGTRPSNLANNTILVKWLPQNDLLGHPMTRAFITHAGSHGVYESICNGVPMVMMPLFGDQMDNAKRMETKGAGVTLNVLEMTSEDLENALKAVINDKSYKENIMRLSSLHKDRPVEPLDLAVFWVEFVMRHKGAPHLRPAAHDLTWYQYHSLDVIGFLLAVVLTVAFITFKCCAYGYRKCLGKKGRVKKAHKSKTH

[9] = molecular target: UGT2B7 (Homo sapiens, UniProt P16662); details: Table 10
Sequence of UGT2B7 (P16662 24-529): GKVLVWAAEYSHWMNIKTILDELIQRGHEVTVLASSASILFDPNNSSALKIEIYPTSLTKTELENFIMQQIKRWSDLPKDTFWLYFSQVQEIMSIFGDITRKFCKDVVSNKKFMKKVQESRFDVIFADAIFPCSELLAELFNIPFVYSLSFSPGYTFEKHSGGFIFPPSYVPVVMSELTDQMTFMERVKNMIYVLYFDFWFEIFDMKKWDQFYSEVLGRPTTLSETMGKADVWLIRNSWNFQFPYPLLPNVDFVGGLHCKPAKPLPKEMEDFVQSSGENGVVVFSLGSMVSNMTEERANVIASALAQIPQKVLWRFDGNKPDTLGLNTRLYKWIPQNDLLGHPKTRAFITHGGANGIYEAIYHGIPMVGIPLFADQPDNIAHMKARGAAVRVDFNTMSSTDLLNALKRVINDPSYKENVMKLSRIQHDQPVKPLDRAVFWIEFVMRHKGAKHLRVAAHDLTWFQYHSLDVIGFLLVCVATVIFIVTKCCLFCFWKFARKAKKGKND

[10] = molecular target: UGT2B15 (Homo sapiens, UniProt P54855); details: Table 10
Sequence of UGT2B15 (P54855 24-530): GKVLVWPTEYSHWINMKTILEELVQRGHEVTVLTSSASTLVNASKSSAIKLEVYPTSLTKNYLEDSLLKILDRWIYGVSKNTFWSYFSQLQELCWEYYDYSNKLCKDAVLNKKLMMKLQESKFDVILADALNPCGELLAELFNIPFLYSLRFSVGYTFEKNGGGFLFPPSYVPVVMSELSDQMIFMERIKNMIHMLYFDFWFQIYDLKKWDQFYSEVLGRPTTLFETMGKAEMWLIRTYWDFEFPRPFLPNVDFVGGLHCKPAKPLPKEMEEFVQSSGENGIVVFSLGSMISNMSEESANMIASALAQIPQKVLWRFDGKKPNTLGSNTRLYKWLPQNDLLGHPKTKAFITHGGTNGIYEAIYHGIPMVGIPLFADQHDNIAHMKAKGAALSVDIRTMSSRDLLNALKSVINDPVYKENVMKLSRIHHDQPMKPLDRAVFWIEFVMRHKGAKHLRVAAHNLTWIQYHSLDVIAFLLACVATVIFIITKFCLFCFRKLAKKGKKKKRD

[11] = system: at least two (not named) of CYPs 1A2, 2B6, 2C8, 2C9, 2C19, 2D6, 2E1 and 3A4, relative to CYP2A6; assay: in vitro; details: human
[12] = molecular target: T3, CYP2A6 (Homo sapiens, UniProt P11509); assay: biochemical; details: IC50 against CYP2A6; human liver microsomes
T3 sequence (P11509 1-494): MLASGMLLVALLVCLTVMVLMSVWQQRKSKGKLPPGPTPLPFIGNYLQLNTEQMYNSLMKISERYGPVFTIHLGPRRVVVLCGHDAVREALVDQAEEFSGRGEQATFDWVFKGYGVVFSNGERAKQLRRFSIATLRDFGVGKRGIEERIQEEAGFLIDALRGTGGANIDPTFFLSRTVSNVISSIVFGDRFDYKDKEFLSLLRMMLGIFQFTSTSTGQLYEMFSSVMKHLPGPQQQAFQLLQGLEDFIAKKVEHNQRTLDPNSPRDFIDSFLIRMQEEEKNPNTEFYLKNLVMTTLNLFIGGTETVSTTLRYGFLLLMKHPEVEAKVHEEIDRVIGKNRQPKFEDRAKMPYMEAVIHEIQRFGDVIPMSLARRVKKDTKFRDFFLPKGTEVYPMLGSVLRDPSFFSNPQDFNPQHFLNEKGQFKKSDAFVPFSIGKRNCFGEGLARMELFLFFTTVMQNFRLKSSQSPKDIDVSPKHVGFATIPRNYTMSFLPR

[13] = molecular target: CYP2C19 (Homo sapiens, UniProt P33261); assay: CYP2C19 inhibition assay, human liver microsomes, omeprazole probe (cocktail); details: Table 6
Sequence of CYP2C19 (P33261 whole entry): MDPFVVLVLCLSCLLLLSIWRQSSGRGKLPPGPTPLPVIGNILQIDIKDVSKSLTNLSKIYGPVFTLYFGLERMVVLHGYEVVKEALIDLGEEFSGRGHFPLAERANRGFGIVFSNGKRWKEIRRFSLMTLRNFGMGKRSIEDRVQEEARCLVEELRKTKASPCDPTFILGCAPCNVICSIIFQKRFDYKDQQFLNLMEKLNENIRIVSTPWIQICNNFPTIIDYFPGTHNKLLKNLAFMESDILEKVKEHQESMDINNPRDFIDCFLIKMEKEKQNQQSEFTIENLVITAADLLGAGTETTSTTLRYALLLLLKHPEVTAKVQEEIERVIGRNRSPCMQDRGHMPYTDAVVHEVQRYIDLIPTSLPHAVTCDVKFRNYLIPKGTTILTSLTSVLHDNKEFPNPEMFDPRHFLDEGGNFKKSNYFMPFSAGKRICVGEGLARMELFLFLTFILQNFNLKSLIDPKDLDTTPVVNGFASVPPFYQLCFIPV

[14] = molecular target: CYP2D6 (Homo sapiens, UniProt P10635); assay: CYP2D6 inhibition assay, human liver microsomes, dextromethorphan probe (cocktail); details: Table 6
Sequence of CYP2D6 (P10635 whole entry): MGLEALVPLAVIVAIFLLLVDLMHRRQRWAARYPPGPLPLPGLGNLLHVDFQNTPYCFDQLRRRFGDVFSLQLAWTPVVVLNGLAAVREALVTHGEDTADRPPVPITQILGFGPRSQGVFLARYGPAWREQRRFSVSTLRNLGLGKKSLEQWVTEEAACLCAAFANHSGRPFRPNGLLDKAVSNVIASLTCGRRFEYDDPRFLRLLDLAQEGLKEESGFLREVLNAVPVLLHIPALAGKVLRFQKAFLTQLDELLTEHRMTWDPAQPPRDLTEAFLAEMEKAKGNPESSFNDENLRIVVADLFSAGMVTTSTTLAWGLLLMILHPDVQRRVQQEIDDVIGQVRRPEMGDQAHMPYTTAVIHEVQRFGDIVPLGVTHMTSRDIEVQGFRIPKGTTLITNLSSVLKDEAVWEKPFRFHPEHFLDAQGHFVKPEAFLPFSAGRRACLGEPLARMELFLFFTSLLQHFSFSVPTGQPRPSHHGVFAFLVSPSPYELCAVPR

In the case of `COc1ccncc1C#CCN` [Compound K, 3-(4-methoxypyridin-3-yl)prop-2-yn-1-amine], the IC50 ([1]; IC50 against UGT2B10) is reported as under 60 µM, the IC50 ([1]; IC50 against UGT2B10 (μM), Table 9, pooled human liver microsomes, nicotine 500 μM) is reported as 33 µM and the “UGThepatic/UGT2B10 IC50 ratio against all UGT enzymes tested” value [2] is reported as over 3.5. The “IC50 ratio CYP2C8/CYP2A6” value [3] was over 15, the “IC50 ratio CYP2E1/CYP2A6” value [4] was 5.3 and the “IC50 ratio UGT1A1/UGT2B10” value [5] was 4. The “IC50 ratio UGT1A4/UGT2B10” value [6] was 7, the “IC50 ratio UGT1A6/UGT2B10” value [7] was 29 and the “IC50 ratio UGT1A9/UGT2B10” value [8] was 5. The “IC50 ratio UGT2B7/UGT2B10” value [9] was 13, the “IC50 ratio UGT2B15/UGT2B10” value [10] was 30 and the selectivity ratio at 15 min [11] was under 5. For the same compound, the IC50 [12] was under 10 µM, the “IC50 ratio CYP2C19/CYP2A6” value [13] was 2.7 and the “IC50 ratio CYP2D6/CYP2A6” value [14] was over 15.
